Measured values published in patent publication US20220339257A1, “METHODS TO INCREASE THE SENSITIVITY AND REVERSING THE RESISTANCE TO DRUGS” (Biomarker Strategies, LLC, priority 2019, published 2022).

What was measured:
Type in all cases: cell-based
[1] = test system: RPMI-1975; assay: HoPI live cell staining; details: 24 hours
From the text: (§1) A double stain of Hoechst 33342 and propidium iodide allows for the determination of cell viability with high specificity and low background noise, as compared to trypan blue staining. Hoechst 33342 is a cell permeable blue fluorescent nuclear stain which will stain all cell types. Propidium iodide is a cell impermeable red fluorescent nuclear stain that will only bind to the nuclei of cells with compromised membranes (dead cells). The staining can be performed rapidly on live cell suspensions within 15 minutes. 25 uL of 4× Hoechst 33342 Solution (40 ug/mL) and 25 uL of 4×Propidium Iodide Solution are added to 50 uL of cell suspension. The suspension was gently mixed 10 times and 50 uL was immediately transferred to a microfluidic cell counting chip. A 365 nm LED was used to excite both Hoechst 33342 and propidium iodide. Images of the cells were captured using a 10× objective lens on an Olympus microscope using a Canon EOS 6D camera using an ISO of 800 and an exposure of 2 seconds; both JPEG and RAW images were saved for analysis. The blue channel was used to measure the total number of cells and the red channel was used to measure the number of dead cells. Cell counting was performed automatically by the Image Pro software (Media Cybernetics, Inc).
MTA and EM effects on apoptosis were measured by Hoechst-Propidium Iodide staining (HoPI). For the assay, cells were seeded in 6-well plates at 400K cells per well, in 2 mL of 10% FBS-containing media and incubated for 24 hours. At 24 hours, a 1 nM to […] range of MTA and/or 1 ng/mL to 1 mg/mL range of EM doses was added and incubated for 24 hours. After 24 hours incubation respective cells' media was collected, added the 1× HBSS wash from the plate in the respective tube. Adherent cells were detached by treating with Accutase for 6 minutes and collected in respective tubes. All samples were centrifuged for 5 minutes at 1200 RPM. […] The area, mean intensity, standard deviation of the mean intensity, minimum intensity, maximum intensity and perimeter were measured for each cellular region in the red channel and also in the blue channel. […]

[2] = test system: clinical sample; HS2170 and Calu-6 cells; assay: HoPI assay (Hoechst 33342 and propidium iodide); details: Osimertinib in combination with EM2
From the text: as §1

[3] = test system: clinical sample (WT EGFR tumor, patient who smoked); assay: Immunocytochemistry biomarker staining of a clinical sample; details: erlotinib+EM2 combination
Method: Cells at the seeding density of 10,000 cells per well were plated in 8 chamber slides in complete RPMI culture medium for overnight. After 24h cells were treated with RPMI media without the serum along with selected dose of erlotinib+EM2 and kept for additional 72 hours in incubation condition set at 37° C. in a humidified atmosphere of 95% air and 5% CO2. The chamber slides were rinsed with PBS before performing ICC staining. An Ambay kit (Catalog #10011A) purchased from Ambay Immune Sensors and Controls, LLC (AISC) (MD, USA) was used to perform ICC staining as per the kit instructions and using poly-HRP from Biogenix (CA, USA) was used to enable signal amplification and detection of specific bound antibody targets. A respective isotype antibody control was be kept for each biomarker. Counterstaining was performed before mounting and analysis.

## tumor necrosis factor-alpha [EM2]
[1]; GSK458 and TNFa in combination
  reduction in live cells (HoPI): 68%
[1]; single agent
  reduction in live cells (HoPI): 8%
[2]
  cell death (HoPI assay): increase in cell death
[3]
  cell apoptosis (nuclear staining of Bcl2, nuclear vacuolization): promoted cell apoptosis
